What was measured:
[1] = tested on: β-adrenoceptor, ventricular membranes; assay: [3H]-DHA saturation binding to ventricular membranes (Scatchard analysis); design: species or system pig
Method: (§1) Pig's heart were obtained from a local slaughterhouse immediately after the animals had been killed and transported to our laboratory in ice-cold buffer (250 mM sucrose/50 mM Tris [hydroxymethyl] aminomethane HCl/1 mM magnesium chloride, pH 7.4). Various heart tissues were removed and prepared as detailed as described in Cardiovasc. Res. 25, 764, 1991 (by Bjornerheim, R. et al.). In the test for receptor binding, the ventricles were placed in ice-cold buffer and all subsequent procedures were carried out at 4° C. The tissue was homogenised in 20 volumes of TE buffer (10 mmole.litre^-1 Tris-HCl, 1 mmole.litre^-1 EDTA, 0.1 mmole.litre^-1 ascorbic acid, pH 7.4) with three 12-s pulses using a Polytron homogenizer (Kinematica, Model PT 3000, Switzerland). The homogenate was filtered with pressure through muslin and the filtrate centrifuged for 10 min at 1000 g to remove connective tissue, unbroken cells and cell debris. The supernatant was centrifuged again at 10,000 g for 12 min. This second supernatant was then centrifuged for 15 min at 30,000 g and the final pellet was suspended in a assay buffer (75 mM Tris HCl/25 mM MgCl2, pH 7.4).
(§2) Protein was determined by the method in Anal. Biochem. 72, 248, 1976 (by Bradford, M. M. et al.). This membrane preparation has been described in Biochem. Biophys. Acta. 541, 334, 1978 (by Ciaraldi, T. et al.). The binding assay of [^3 H]-DHA was carried out as described in Biochem. Biophys. Res. Commun. 60, 703, 1974 ( by Lefkowitz, R. J. et al.) with slight modifications. [^3 ]-DHA and ventricular membranes (200-300 μg) were incubated for 60 min at 25° C. with and without the addition of 1 μM alprenolol, in 75 mM Tris-HCI buffer comprising MgCl2 25 mM, to make a final volume of 250 μl. In competitive binding experiments, the competing agent was added directly to the incubation mixture. The incubation was terminated by addition of 1 ml of ice-cold assay buffer followed by immediate filtration through Whatman GF/C glass fiber filters supported on a 12-port filter manifold (Millipore). The filters were immediately washed three times with 5 ml of ice-cold assay buffer and dried in an oven at 60° C. for 2 hr prior to adding 5 ml of Triton-toluene based scintillation fluid.
[^3 H]-DHA trapped in the filters was counted in a Wallac LKB 1211 rackbeta liquid scintillation counter with an efficiency of 41%. In each experiment, non-specifically bound [^3 H]-DHA was determined by incubating membrane protein and [^3 H]-DHA with 1 μM alprenolol. Specific binding was thus obtained by deducing this value from the total binding of [^3 H]-DHA for each sample.
[^3 H]dihydroalprenolol([^3 H]DHA) binding curve with pig ventricular membranes. […]

[2] = tested on: right atria and left atrial strips; assay: Intrinsic sympathomimetic activity in isolated right atria and left atrial strips; design: species or system reserpinized guinea-pigs; conditions: in words
Method: Animals were pretreated with reserpine (10 mg/kg, i.p.) 24 hr prior to the experiment described in Naunyn-Schmiedeberg's Arch. […] All preparations including isolated right atria and left atria strips were studied.
All measurements are expressed as mean percentages of the control frequency or force in the same preparation.

[3] = molecular target: T1, β-adrenoceptor, ventricular membranes (Sus scrofa, UniProt Q28998); assay: Competition for [3H]-DHA binding to ventricular membranes; design: species or system pig
T1 construct: tissue local slaughterhouse; host or cells: pig heart ventricular membranes
T1 sequence (Q28998 whole entry): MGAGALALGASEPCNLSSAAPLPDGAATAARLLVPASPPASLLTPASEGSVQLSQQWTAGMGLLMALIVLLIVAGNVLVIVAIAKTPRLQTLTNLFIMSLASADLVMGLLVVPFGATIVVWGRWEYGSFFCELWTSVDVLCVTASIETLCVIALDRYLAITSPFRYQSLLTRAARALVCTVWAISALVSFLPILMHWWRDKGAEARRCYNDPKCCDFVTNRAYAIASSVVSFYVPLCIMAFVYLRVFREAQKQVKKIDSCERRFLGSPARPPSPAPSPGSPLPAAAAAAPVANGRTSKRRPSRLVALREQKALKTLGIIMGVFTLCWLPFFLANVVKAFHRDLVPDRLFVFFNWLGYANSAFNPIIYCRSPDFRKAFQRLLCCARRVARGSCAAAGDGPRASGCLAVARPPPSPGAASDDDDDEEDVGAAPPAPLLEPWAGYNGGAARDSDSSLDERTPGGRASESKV
Method: as §1, with “Res. 25, 764, 1991 (by Bjornerheim, R. et al.).” left out, “debris.” for “debris. The supernatant was centrifuged again at 10,000 g for 12 min. This second supernatant was then centrifuged for 15 min at 30,000 g and the final pellet was suspended in a assay buffer (75 mM Tris HCl/25 mM MgCl2, pH 7.4).”
as §2, with “This” for “Protein was determined by the method in Anal. Biochem. 72, 248, 1976 (by Bradford, M. M. et al.). This”, “541, 334, 1978 (by Ciaraldi, T. et al.).” left out, “60, 703, 1974 ( by Lefkowitz, R. J. et al.) with slight modifications.” left out
In each experiment, non-specifically bound [^3 H]-DHA was determined by incubating membrane protein and [^3 H]-DHA with 1 μM alprenolol. Specific binding was thus obtained by deducing this value from the total binding of [^3 H]-DHA for each sample.
All incubations were performed as described in the method section. Data shown are the means of three independent duplicate determinations.

[4] = tested on: phenylephrine-induced pressor response; assay: Inhibition of phenylephrine-induced pressor response during intravenous infusion; assay type: in vivo, reserpinized rats; conditions: infusion 300 μg/kg/min; phenylephrine 10 μg/kg i.v.; data not shown
Method: The method reported in Gen. Pharmacol. 24, 1425, 1993 (by inventor group),
phenylephrine (10 μg/klg, i.v.)

blood and liver esterase = conditions: background, Drugs 33, 392, 1987; cited from earlier work
[5] = Blood pressure and heart rate responses to intravenous injection in anesthetized rats; assay type: in vivo, pentobarbital-anesthetized normotensive Wistar rats
Method: Measurement of blood pressure and heart rate
The method reported in Gen.
(§3) vasomolol (0.5, 1.0, 3.0 mg/kg)

β-adrenergic receptor = assay: β-blockade and duration of action: inhibition of (-)isoproterenol-induced tachycardia during and after infusion; assay type: in vivo, pentobarbital-anesthetized rats
Method: Vasomolol (100 μg/kg/min) was infused consecutively into a femoral vein in pentobarbital-anesthetized rats. Each perfusion was maintained for 60 min. Before and during the infusion of vasomolol and esmolol, at 10-min intervals, bolus i.v. injections of (-) isoproterenol (0.5. μg/kg) were administered to assess the level of β-blockade. (-) lsoproterenol injections were also continued for 60 min. after termination of the highest dose of vasomolol and esmolol to assess the duration of β-blockade reported in J. Pharm. Exp. Ther. 237, 912, 1986 (by Quon, C. Y. et al.). The percentage of inhibition of the (-)isoproterenol-induced tachycardia parameter of β-blockade--was calculated during and after infusions of vasomolol.
isoproterenol (0.5 μg/kg)
as §3

[6] = Blood pressure and heart rate responses to intravenous injection in anesthetized rats; assay type: in vivo, pentobarbital-anesthetized normotensive Wistar rats; conditions: 0.1 mg/kg i.v.; mean ± SEM (n = 8)
[7] = 0.5 mg/kg i.v., mean ± SEM (n = 8)
[8] = 1.0 mg/kg i.v., mean ± SEM (n = 8)
[9] = 3.0 mg/kg i.v., mean ± SEM (n = 8)

CCCc1ccccc1OCC(O)CNC(C)C (centres unmarked) [[^3 H]-DHA, [^3 H]dihydroalprenolol]
maximum binding capacity (Bmax) ([1]; 25° C., mean±S.E.M., Scatchard): 120.3±6.0 fmol/mg protein | Kd ([1]; 25° C., mean±S.E.M., Scatchard, read-out: equilibrium dissociation constant (Kd)): 8.1 ± 0.9 nM | duration of maintained binding equilibrium ([1]; data not shown): up to 90 min | time to reach binding equilibrium ([1]; data not shown): approximately 20 min

CC(C)NCC(O)c1ccc(O)c(O)c1 (centres unmarked) [isoproterenol, reference compound]
intrinsic sympathomimetic activity: effect on heart rate and contractility ([2]; cumulative concentrations): produced concentration-dependent increases in heart rate and contractility

COC(=O)CCc1ccc(OCC(O)CNC(C)C)cc1 (centres unmarked) [Esmolol]
order of potency inhibiting [3H]-DHA binding ([3]; in words): (-) propranolol>>vasomolol=esmolol | IC50 ([3]; mean±S.E.M.): 5000 ± 1300 nM | inhibition of phenylephrine-induced pressor response [4]: could not significantly inhibit | metabolism by blood and liver esterase (blood and liver esterase): rapidly metabolized by blood and liver esterase | BP change [5, 7]: -4.0 ± 0.8 mm Hg | HR change [5, 7]: -25.7 ± 2.4 bpm | bradycardia duration [5, 7]: 3.7 ± 0.6 min | BP change [5, 8]: -6.3 ± 1.3 mm Hg | HR change [5, 8]: -37.5 ± 3.6 bpm | bradycardia duration [5, 8]: 6.0 ± 1.3 min | BP change [5, 9]: -8.7 ± 0.9 mm Hg | HR change [5, 9]: -58.2 ± 4.7 bpm | bradycardia duration [5, 9]: 7.5 ± 1.1 min | bradycardia duration ([5]; i.v. injection): less than 10 min | onset of β-blockade to steady-state level (β-adrenergic receptor; after initiating each infusion rate, isoproterenol 0.5 μg/kg): ≤ 10 min | time required for 50% recovery (β-adrenergic receptor; after termination of infusion, mean±S.E.M.): 9.5 ± 1.0 min | disappearance of β-blockade after termination of infusion (β-adrenergic receptor; in words): disappeared rapidly after the termination of infusion

CC(C)NCC(O)COc1cccc2ccccc12 (centres unmarked) [Propranolol]
HR change [6]: -30.7 ± 3.8 bpm | negative inotropic and chronotropic effects [2]: produced negative inotropic and chronotropic effects | BP change ([5]; 0.1 mg/kg i.v., mean ± SEM (n = 8)): 3.9 ± 1.0 mm Hg | BP change [5, 7]: 7.0 ± 1.6 mm Hg | HR change [5, 7]: -50.6 ± 8.1 bpm | BP change [5, 8]: 9.5 ± 1.1 mm Hg | HR change [5, 8]: -65.0 ± 8.9 bpm

Reference: patent US5939578A, “Vasomolol: an ultra short-acting and vasodilatory vanilloid type β - adrenoceptor antagonist” (Lin; Tong-Ho, priority 1996, dated 1999)
